Literature values, collected in patent publication US6706892B1, “Pulmonary delivery for bioconjugation” (priority 1999, dated 2004).

Key:
breast cancer = settings: in vivo
[1] = in vivo

Row | half-life [1] | Compound | cut in the risk of breast cancer (breast cancer)
1 |  | O=C(c1ccc(OCCN2CCCCC2)cc1)c1c(-c2ccc(O)cc2)sc2cc(O)ccc12 [Raloxifene] | ≤ 60%
2 | about 24 hours | CC1=NS(=O)(=O)c2cc(Cl)ccc2N1 [Diazoxide] | 
